Source: patent US6461807B1, “Methods for drug target screening” (priority 1997, dated 2002)

Experiments:
[1] = test system: S. cerevisiae wild-type and cna, cph1, fpr1 deletion strains; experiment: Transcript array comparison of drug-exposed wild-type and deletion mutant yeast, microarray with approximately 5900 ORFs; assay type: cell-based, Saccharomyces cerevisiae
Description: (§1) The RNA was converted into cDNA while simultaneously incorporating fluorescent nucleotides, according to standard protocols as described above. The cDNAs were hybridized to either a microarray having 140 sites with relevant S. cerevisiae ORF sequences, or to a microarray having sites with 5900 sites with nearly all known S. cerevisiae ORF sequences. The intensities of the two fluors used to label the RNAs to be compared were measured at each site of the array. The ratio of these intensities is referred to as the expression ratio.
(§2) To produce deletion mutant transcript arrays, RNA was prepared from a publicly available S. cerevisiae strain that contains genetic disruptions in both catalytic subunits of calcineurin (hereinafter, the cna mutant) and its isogeneic with the parental wild-type strain. These two strains were grown in parallel, harvested and processed in an identical manner as described above. As above, the cDNAs were hybridized to the array and the intensities of the two fluors (expression ratio) were measured at each site of the array. Thereby a cna mutant transcript array was produced.
(§3) Selected pairs of the transcript arrays were compared by computing a correlation coefficient between the pairs as previously described. As is known in the art, higher values of the correlation coefficient represent a greater degree of similarity between the pair of arrays. As indicated subsequently, in some cases expression ratios were directly used for this computation, while in other cases the log10 function of the expression ratios were used.
In this table, columns two and three list the transcript arrays that are compared (labeled “First Transcript Array” and “Second Transcript Array”). Their correlation coefficient is presented in the fourth column (labeled “Corr. Coef.”). The number of standard deviations represented by the correlation coefficient (in terms of the expected correlation coefficient representing one Gaussian standard deviation) is presented in the fifth column (labeled “Std. Dev.”). The expected standard deviation depends on the data set size according to known statistical procedures. The number of standard deviations above the expected mean can be used to determine the statistical significance of the correlation coefficient, as is known in the art.
The transcript arrays measured in Tables 1 and 2 were similarly produced by the previously described methods.

[2] = test system: S. cerevisiae wild-type and cna, cph1, fpr1 deletion strains; experiment: Transcript array comparison of drug-exposed wild-type and deletion mutant yeast, microarray with 140 selected ORF sites; assay type: cell-based, Saccharomyces cerevisiae; settings: Table 3, 140 ORF sites
Description: as §1, §2
Deletion mutant transcript arrays were also produced in similar manners for disruptions to the genes cph1 (coding the major cyclophilin in yeast) and fpr1 (coding the major FK506-binding protein).
as §3
This table, in contrast to Table 1 and 2 (which were created from microarrays with approximately 5900 ORF sites) was created from microarray having sites with 140 S. cerevisiae selected ORF sites thought to be relevant to the primary action of these drugs. Correlation coefficients were computed using log10 of the raw expression ratios.

[3] = Table 1, log10 of expression ratios, 1 mg/ml FK506 or 30 mg/ml CSA

SMILES: C=CC[C@@H]1/C=C(\C)C[C@H](C)C[C@H](OC)[C@H]2O[C@@](O)(C(=O)C(=O)N3CCCC[C@H]3C(=O)O[C@H](/C(C)=C/[C@@H]3CC[C@@H](O)[C@H](OC)C3)[C@H](C)[C@@H](O)CC1=O)[C@H](C)C[C@@H]2OC [FK506]
- Corr. Coef., wild-type drug transcript array vs fpr1 mutant transcript array ([1]; Table 1, log10 of expression ratios, 1 mg/ml FK506): −0.011
- Corr. Coef., wild-type FK506 drug transcript array vs wild-type CSA drug transcript array ([1]; Table 1, log10 of expression ratios, 1 mg/ml FK506, 30 mg/ml CSA, three generations): 0.334
- Corr. Coef., wild-type drug transcript array vs cna mutant drug transcript array (same drug) [1, 3]: 0.065
- Corr. Coef., wild-type drug transcript array vs cna mutant transcript array [1, 3]: 0.605
- Corr. Coef., wild-type drug transcript array vs cph1 mutant drug transcript array (same drug) [1, 3]: 0.767
- Corr. Coef., wild-type drug transcript array vs fpr1 mutant drug transcript array (same drug) [1, 3]: −0.085
- Corr. Coef., wild-type FK506 drug transcript array vs cna mutant FK506 drug transcript array ([1]; Table 2): 0.052
- Corr. Coef., wild-type FK506 drug transcript array vs cna mutant transcript array ([1]; Table 2): 0.245
- Corr. Coef., wild-type FK506 drug transcript array vs cph1 mutant FK506 drug transcript array ([1]; Table 2): 0.328
- Corr. Coef., wild-type FK506 drug transcript array vs fpr1 mutant FK506 drug transcript array ([1]; Table 2): 0.136
- Corr. Coef., wild-type FK506 drug transcript array vs wild-type CSA drug transcript array ([1]; Table 2): 0.243
- Corr. Coef., cna mutant FK506 drug transcript array vs cna mutant CSA drug transcript array [2]: 0.20
- Corr. Coef., cph1 mutant FK506 drug transcript array vs cph1 mutant CSA drug transcript array [2]: 0.15
- Corr. Coef., cph1 mutant FK506 drug transcript array vs fpr1 mutant CSA drug transcript array [2]: 0.71
- Corr. Coef., fpr1 mutant FK506 drug transcript array vs cph1 mutant CSA drug transcript array [2]: 0.40
- Corr. Coef., fpr1 mutant FK506 drug transcript array vs fpr1 mutant CSA drug transcript array [2]: −0.01
- Corr. Coef., wild-type FK506 drug transcript array vs wild-type CSA drug transcript array ([2]; log10 of raw expression ratios): 0.67
- Corr. Coef., wild-type drug transcript array vs cna mutant drug transcript array (same drug) ([2]; log10 of raw expression ratios): −0.12
- Corr. Coef., wild-type drug transcript array vs cna mutant transcript array ([2]; log10 of raw expression ratios): 0.61
- Corr. Coef., wild-type drug transcript array vs cph1 mutant drug transcript array (same drug) ([2]; log10 of raw expression ratios): 0.70
- Corr. Coef., wild-type drug transcript array vs fpr1 mutant drug transcript array (same drug) ([2]; log10 of raw expression ratios): 0.04
- Corr. Coef., wild-type vs wild-type transcript array vs wild-type drug transcript array ([2]; negative control comparison): −0.05
